According to patent publication US9315489B2, “Compounds and compositions for inhibiting the activity of ABL1, ABL2 and BCR-ABL1” (Novartis AG, priority 2012, dated 2016):
Like-named read-outs stand apart in the source and are kept apart here.

Columns and labels:
Ba/F3-BCR-ABL1-WT cells = experiment: Ba/F3-BCR-ABL1-WT cellular proliferation assay; format: cell-based, murine; settings: Mus musculus, read-out: Ba/F3-BCR-ABL1-WT IC50
[1] = Compound concentration in mouse brain and plasma; format: in vivo; settings: 5 minutes after a single intravenous injection of 1 mg/kg in mice; for Kp at 5 min / concentration at 5 min: mouse; for Kp at 5 min: brain/plasma, read-out: Mean Ratio (brain/plasma); for concentration at 5 min: plasma, read-out: Mean blood (drug concentration in plasma)
[2] = system: Ba/F3-BCR-ABL1-T315I cells; experiment: Ba/F3-BCR-ABL1-T315I cellular proliferation assay; format: cell-based, murine; settings: Mus musculus, read-out: Ba/F3-BCR-ABL1-T315I IC50
Source text: The murine bone marrow-derived cell line Ba/F3 was used to generate the appropriate cell line models. Ba/F3 cells were obtained from the German Collection of Microorganisms and Cell Cultures (DSMZ, Braunschweig and DSMZ No. ACC 300). […] These cells are referred to as Ba/F3-WT.
To generate Ba/F3 cells that depend on BCR-ABL1 expression for growth and survival, Ba/F3 cells were engineered to express BCR-ABL1 using retroviral transduction with a MSCV based retroviral vector containing a p210 BCR-ABL1expression cassette. When grown in the absence of IL-3, the proliferation of the cells is dependent on the expression of BCR-ABL1. (Daley, G. Q. and Baltimore, D. Transformation of an interleukin 3-dependent hematopoietic cell line by the chronic myeloid leukemia-specific p210 BCR-ABL1 protein. PNAS 1988; 85:9312-9316). These cells are referred to as Ba/F3-BCR-ABL1-WT. A similar approach was used to generate Ba/F3 cells that depend on a BCR-ABL1 variant in which threonine 315 is replaced with isoleucine. These cells are referred to as Ba/F3-BCR-ABL1-T3151.
Ba/F3-WT cells were maintained in RPMI1640 media with L-glutamine, HEPES (Lonza), 10% FBS (Gibco) and 5 ng/ml IL-3 (Calbiochem). Ba/F3-BCR-ABL1-WT cells and Ba/F3-BCR-ABL1-T3151 cells were maintained in RPMI1640 media with L-glutamine, HEPES (Lonza) and 10% FBS (Gibco).
For each cell line, the cell density was adjusted to 50 000 cells/mL and 50 μL (2500 cells) added per well of a 384-well assay plate.
Test compounds were resuspended in DMSO at a concentration of 10 mM. A serial three-fold dilution of each compound with DMSO was performed in 384-well plates using the Janus Liquid Dispenser (PerkinElmer). Compound was delivered to the assay plates containing 2500 cells in a 50 μL volume via Acoustic delivery from an ATS-100 (EDC). For Ba/F3-BCR-ABL1-WT cell assays, […] of each compound dilution was transferred to the assay plate for final assay concentrations of 0.4 μM, 0.13 μM, 0.044 μM, 0.015 μM, 0.005 μM, 0.001 μM, 0.00033 μM, 0.00011 μM, 0.000037 μM, 0.000012 μM. For Ba/F3-WT and Ba/F3-BCR-ABL1-T315I cell assays, […] of each compound dilution was transferred to the assay plate for final assay concentrations of 10 μM, 3.33 μM, 1.11 μM, 0.37 μM, 0.12 μM, 0.041 μM, 0.014 μM, 0.0046 μM, 0.0015 μM, 0.00051 μM.
Cells were incubated at 37° C. in a humidified environment with 5% carbon dioxide for 48 hours. Britelite plus solution (Perkin Elmer) was prepared according to the manufacturer's instructions and 25 μL added to each well of the assay plate. Plates were incubated for 3-5 minutes and the luminescence detected on an EnVision Multimode plate reader (Perkin Elmer). The degree of luminescence correlates with the number of cells in each well. The effect of each inhibitor concentration can therefore be calculated and IC50 values generated.

ABL1 (64-515) [3] = target: T1, ABL1 (64-515) (Homo sapiens (Human), UniProt P00519); experiment: Radio ABL1 (64-515) assay (radiometric filter-binding); format: biochemical
T1 sequence (P00519 64-515): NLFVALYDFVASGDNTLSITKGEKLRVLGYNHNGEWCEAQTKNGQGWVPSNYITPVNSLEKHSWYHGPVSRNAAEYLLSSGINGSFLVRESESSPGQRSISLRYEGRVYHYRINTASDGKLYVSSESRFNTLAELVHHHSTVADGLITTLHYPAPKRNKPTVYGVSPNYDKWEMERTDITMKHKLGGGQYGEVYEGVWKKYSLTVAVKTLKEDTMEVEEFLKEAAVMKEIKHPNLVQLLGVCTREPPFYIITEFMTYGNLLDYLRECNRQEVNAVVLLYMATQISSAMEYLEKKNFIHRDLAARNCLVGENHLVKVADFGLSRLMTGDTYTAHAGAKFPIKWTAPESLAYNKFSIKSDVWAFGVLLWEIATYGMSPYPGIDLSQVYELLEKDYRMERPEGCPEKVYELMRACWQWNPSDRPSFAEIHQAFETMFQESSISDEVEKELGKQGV

ABL1 (64-515) [4] = target: T1, ABL1 (64-515); experiment: Caliper ABL1 (64-515) assay (microfluidic mobility shift); format: biochemical

| Structure (SMILES) | IC50 (Ba/F3-BCR-ABL1-WT cells; 48 hours) [µM] | IC50 ([2]; 48 hours) [µM] | IC50 (ABL1 (64-515) [4]) [µM] | Mean brain (drug concentration in brain) [1] [pmol/g] | Kp at 5 min [1] | concentration at 5 min [1] [nM] | IC50 (ABL1 (64-515) [3]) [µM] | IC50 (Ba/F3-BCR-ABL1-WT cells; 48 h) [µM] | IC50 ([2]; 48 h) [µM] |
| --- | --- | --- | --- | --- | --- | --- | --- | --- | --- |
| O=C(Nc1ccc(OC(F)(F)Cl)cc1)c1cccc(-c2cncnc2)c1 [Example 10, N-(4-(Chlorodifluoromethoxy)phenyl)-3-(pyrimidin-5-yl)benzamide] | 0.0021 | 0.4 |  | 4093 | 3.24 | 1260 | 0.0095 |  |  |
| O=C(Nc1ccc(SC(F)(F)F)cc1)c1cccc(-c2cncnc2)c1 [Example 11, 3-(Pyrimidin-5-yl)-N-(4-((trifluoromethyl)thio)phenyl)benzamide] | 0.0039 | 0.563 |  | 7341 | 4.99 | 1470 | < 0.003 |  |  |
| Cc1ccc(C(=O)Nc2ccc(OC(F)(F)F)cc2)cc1-n1ccnc1 [Example 16, 3-(1H-Imidazol-1-yl)-4-methyl-N-(4-(trifluoromethoxy)phenyl)benzamide] | 0.0012 | 0.617 |  |  |  |  | 0.004 |  |  |
| COc1ccc(C(=O)Nc2ccc(OC(F)(F)F)cc2)cc1-c1cncnc1 [Example 30, 4-methoxy-3-(pyrimidin-5-yl)-N-(4-(trifluoromethoxy)phenyl)benzamide] |  |  |  | 4471 |  | 5390 |  | 0.0041 | 0.849 |
| O=C(Nc1ccc(OC(F)(F)F)cc1)c1cnc(C2=CCOCC2)c(-c2cncnc2)c1 [Example 44, 6-(3,6-Dihydro-2h-pyran-4-yl)-5-(pyrimidin-5-yl)-N-(4-(trifluoromethoxy)phenyl)nicotinamide] |  | 0.214 |  |  |  |  | 0.006 |  |  |
| O=C(Nc1ccc(OC(F)(F)F)cc1)c1cnc(OCCO)c(-c2cncnc2)c1 [Example 52, 6-(2-hydroxyethoxy)-5-(pyrimidin-5-yl)-N-(4-(trifluoromethoxy)phenyl)nicotinamide] |  | 0.499 | 0.023 |  |  |  | 0.023 |  |  |
| O=C(Nc1ccc(OC(F)(F)F)cc1)c1cnc(C(F)(F)F)c(-c2cncnc2)c1 [Example 57, 5-(Pyrimidin-5-yl)-N-(4-(trifluoromethoxy)phenyl)-6-(trifluoromethyl)nicotinamide] |  | 0.703 |  |  |  |  | 0.022 |  |  |
| COC(=O)c1ccc(C(=O)Nc2ccc(OC(F)(F)F)cc2)cc1-c1cncnc1 [Example 68, Methyl 2-(pyrimidin-5-yl)-4-((4-(trifluoromethoxy)phenyl)carbamoyl)benzoate] |  | 0.177 | 0.0016 |  |  |  | < 0.003 |  |  |
| O=C(Nc1ccc(OC(F)(F)Cl)cc1)c1cnc(Cl)c(-c2cncnc2)c1 [Example 76, 6-Chloro-N-(4-(chlorodifluoromethoxy)phenyl)-5-(pyrimidin-5-yl)nicotinamide] | 0.002 | 0.061 | 0.0029 |  |  |  |  |  |  |
| O=C(Nc1ccc(OC(F)(F)Cl)cc1)c1cnc(Cl)c(-c2cncc(F)c2)c1 [Example 78, 2-Chloro-N-(4-(chlorodifluoromethoxy)phenyl)-5′-fluoro-[3,3′-bipyridine]-5-carboxamide] | 0.007 | 0.408 | 0.0039 |  |  |  |  |  |  |

Now from value to compound, other results behind:

| IC50 (Ba/F3-BCR-ABL1-WT cells; 48 hours) [µM] | IC50 ([2]; 48 hours) [µM] | IC50 (ABL1 (64-515) [4]) [µM] | Structure (SMILES) | Mean brain (drug concentration in brain) [1] [pmol/g] | Kp at 5 min [1] | concentration at 5 min [1] [nM] | IC50 (ABL1 (64-515) [3]) [µM] | IC50 (Ba/F3-BCR-ABL1-WT cells; 48 h) [µM] | IC50 ([2]; 48 h) [µM] |
| --- | --- | --- | --- | --- | --- | --- | --- | --- | --- |
| 0.0021 | 0.306 | 0.0035 | Cc1ccc(C(=O)Nc2ccc(OC(F)(F)F)cc2)cc1-c1cncnc1 [Example 14, 4-Methyl-3-(pyrimidin-5-yl)-N-(4-(trifluoromethoxy)phenyl)benzamide] |  |  |  | 0.0085 |  |  |
| 0.018 | 0.363 | 0.0062 | N#CC1(c2ncc(C(=O)Nc3ccc(OC(F)(F)F)cc3)cc2-c2cncnc2)CCC1 [Example 48, 6-(1-Cyanocyclobutyl)-5-(pyrimidin-5-yl)-N-(4-(trifluoromethoxy)phenyl)nicotinamide] |  |  |  | 0.009 |  |  |
|  | 0.488 | 0.0099 | O=C(Nc1ccc(OC(F)(F)F)cc1)c1cnc(Cl)c(-c2cncnc2)c1 [Example 56, 6-Chloro-5-(pyrimidin-5-yl)-N-(4-(trifluoromethoxy)phenyl)nicotinamide] |  |  |  | 0.01 |  |  |
|  | 0.754 | 0.0094 | CCOc1ncc(C(=O)Nc2ccc(OC(F)(F)F)cc2)cc1-c1cncnc1 [Example 58, 6-Ethoxy-5-(pyrimidin-5-yl)-N-(4-(trifluoromethoxy)phenyl)nicotinamide] |  |  |  | 0.049 |  |  |
|  | 0.456 | 0.0038 | O=C(Nc1ccc(OC(F)(F)Cl)cc1)c1cnc(OC2CCOCC2)c(-c2cncnc2)c1 [Example 67, N-(4-(Chlorodifluoromethoxy)phenyl)-5-(pyrimidin-5-yl)-6-((tetrahydro-2h-pyran-4-yl)oxy)nicotinamide] |  |  |  | 0.0012 |  |  |
| 0.038 | 0.655 | 0.026 | O=C(Nc1ccc(OC(F)(F)F)cc1)c1cncc(-c2cncc(F)c2)c1 [Example 75, 5′-Fluoro-N-(4-(trifluoromethoxy)phenyl)-[3,3′-bipyridine]-5-carboxamide] |  |  |  |  |  |  |
